# Measurements reported in US20060057669A1, “Inactive transcription factor tif-ia and uses thereof” (priority 2002, published 2006).
# How the values were obtained:
# [1] = tested on: HEK293T cells; assay: Trypan blue staining; format: cell-based; details: data not shown
# [2] = tested on: TIF-IB/SL1; assay: Co-immunoprecipitation of TIF-IB/SL1 with TIF-IA mutants from HEK293T cells; format: binding, human
# Experimental: (§1) (B) A mutant that mimics phosphorylation of TIF-IA at S199 fails to interact with Pol I and TIF-IB. FLAG-tagged wild-type TIF-IA or the indicated point mutants were overexpressed in HEK293T cells and immunoprecipitated from cell lysates with anti-FLAG antibodies (M2 agarose). Co-precipitated Pol I and TIF-IB/SL1 were visualized on Western blots with anti-RPA116 and anti-TAFI110 antibodies.
# (§2) Immunoprecipitations were carried out from human cells overexpressing FLAG-tagged TIF-IA. Cells were lysed in IP buffer, cleared by centrifugation at 10,000×g for 30 min, and the supernatants were incubated for 4 hr at 4° C. with anti-FLAG (M2) agarose (Sigma). To analyze the interaction of TIF-IA with TIF-IB/SL1, the immunoprecipitates were washed with IP buffer and TIF-IB/SL1 was visualized on immunoblots with α-TAFI110 antibodies. To monitor the interaction of TIF-IA with Pol I, the immunoprecipitates were washed with IP buffer containing 600 mM NaCl and Pol I was analyzed on Western blots using antibodies against the second largest subunit of Pol I (RPA116) or PAF67 (Seither et al., J. Biol. Chem. 382 (2001), 1163-1170).
# (§3) Given the importance of mTOR-mediated alterations in the phosphorylation pattern on TIF-IA activity, one could predict that either phosphorylation of S199, dephosphorylation of S44 or both regulate the interaction of TIF-IA with the Pol I transcription apparatus. It was therefore examined whether the S→A or S→D point mutant(s) were capable of interacting with Pol I and/or TIF-IB/SL1. For this, TIF-IA was precipitated from cells overexpressing either FLAG-tagged wild-type TIF-IA or the respective S199 and S44 mutant(s), and co-precipitated Pol I and TIF-IB/SL1 were visualized on Western blots.
# [3] = tested on: Pol I transcription; assay: In vitro transcription: TIF-IA mutants restoring rDNA transcription of nuclear extract from density-arrested FM3A cells; format: biochemical, murine
# Experimental: (A) Transcriptional activity of TIF-IA mutants in vitro. FLAG-tagged wild-type TIF-IA and the indicated single or double point mutants were overexpressed in HEK293T cells, immunopurified, and 20 and 40 ng were assayed for their capability to restore rDNA transcriptional activity of nuclear extract from density-arrested FM3A cells. The amount and purity of TIF-IA were estimated on silver-stained SDS-polyacrylamide gels and Western blots (data not shown).
# (A) Transcriptional activity of TIF-IAS199A and TIF-IAS199D in vitro. FLAG-tagged wild-type TIF-IA and the indicated mutants were immunopurified from HEK293T cells, and 30 and 60 ng were assayed for their capability to restore transcriptional activity of nuclear extract from density-arrested FM3A cells. The amount and purity of TIF-IA were estimated on silver-stained SDS-polyacrylamide gels (data not shown).
# (B) Transcriptional activity of TIF-IAS44A in vitro. FLAG-tagged wild-type TIF-IA and the indicated mutant were assayed for their transcriptional activity in vitro.
# (§4) Nuclear extracts were prepared from exponentially growing (8×10^5 cells/ml), density-arrested or PD98059-treated (CN Bioscience, Bad Soden, Germany) 40 μM, 0.5 hr) or rapamycin-treated FM3A cells (ATCC, Manassas, USA). 25 μl assays contained 50 ng of template DNA (pMr600/EcoRI), 30 μg nuclear extract proteins and 12 mM Hepes-KOH, [pH8.0], 0.1 mM EDTA, 5 mM MgCl2, 80 mM KCl, 10 mM creatine phosphate, 12% (v/v) glycerol, 0.66 mM each of ATP, GTP and CTP, 0.01 mM UTP and 0.5 μCi [α-^32P]UTP (5000 Ci/mmol). After incubation for 60 min at 30° C., RNA was extracted and analyzed on non-denaturing 5% polyacrylamide gels
# TIF-IA was immunopurified from untransfected NIH3T3 cells or from HEK293T cells overexpressing FLAG-tagged TIF-IA. 4×10^6 cells were lysed in 0.8 ml IP buffer (20 mM Tris-HCl [pH 7.4], 200 mM NaCl, 2 mM EDTA, 2 mM EGTA, 1% Triton X-100, 0.5 mM PMSF, 1 μg/ml aprotinin, 5 μg/ml leupeptin and 1 μg/ml pepstatin A), centrifuged at 10,000 g for 30 min, and the supernatants were incubated for 4 hr at 4° C. with either 10 μg anti-TIF-IA antibodies bound to 20 μl protein G-agarose or with anti-FLAG (M2) agarose (Sigma-Aldrich Corp., Missouri, USA). The immunocomplexes were successively washed with buffer AM (20 mM Tris-HCl [pH 8.0], 5 mM MgCl2, 0.1 mM EDTA, 20% glycerol) containing 400 and 100 mM KCl, respectively. The amount and purity of TIF-IA was estimated on silver-stained polyacrylamide gels and similar amounts of bead-bound TIF-IA were used in in vitro transcription assays. GST fusion proteins were expressed in E. coli BL21(DE3) and purified on Glutathione-Sepharose 4B according to the manufacturer's instructions.
# To assess the functional relevance of S633 and S649 phosphorylation on transcriptional activity, the respective S→A and S→D single or double point mutants were purified from transfected cells and assayed for their capability to rescue transcription of extracts from density-arrested cells. […] Thus, phosphorylation of TIF-IA at S649 and S633 is required for transcriptional activity.
# Phosphorylation of peptide a should inhibit TIF-IA activity, while phosphorylation of peptide b, e.g. S44, should augment TIF-IA activity.
# [4] = tested on: Pol I; assay: Co-immunoprecipitation of Pol I with TIF-IA mutants from HEK293T cells; format: binding, human
# Experimental: as §1, §2, §3
# [5] = tested on: Pol I transcription; assay: Pol I reporter plasmid pMrl930-BH co-transfection in NIH3T3 cells, Northern blot; format: cell-based; details: 0.25, 0.5 or 1 μg expression vector
# Experimental: (C) Phosphorylation by RSK is necessary and sufficient for enhancing TIF-IA activity in vivo. NIH3T3 cells were co-transfected with 3 μg pMrl930-BH and lor 2.5 μg of pMT2-HA-CA-RSK2 (lanes 2, 3). Transcripts from the reporter plasmid were monitored on Northern blots. An ethidium bromide stain of cellular 18S and 28S rRNA is shown below.
# (C) Transcriptional activity of TIF-IAS44A in vivo. NIH3T3 cells were cotransfected with 2.5 μg Pol I reporter plasmid (pMrl930-BH) and 0.25, 0.5 or 1 μg of pcDNA3.1-TIF-IA (lanes 2-4), TIF-IAS44A (lanes 5-7). Transcripts from the reporter plasmid were monitored on Northern blots. The amount of cellular 18S and 28S rRNA is shown below.
# NIH3T3, HEK293T and CLL39 cells were cultured in Dulbecco's modified Eagles medium (DMEM) supplemented with 10% fetal calf serum. Cells were transfected with 5 μg of DNA per 10^6 cells using the calcium phosphate DNA coprecipitation method. Total RNA was isolated after 48 h and analyzed on Northern blots as described (Voit et al., EMBO J. 18 (1999), 1891-1899). Cellular pre-rRNA levels were monitored by hybridization to antisense RNA complementary to the first 155 nucleotides of unprocessed 45S pre-RNA. Transcripts from the rDNA reporter plasmid were monitored by hybridization to a riboprobe that is complementary to pUC sequences inserted between the rDNA promoter and terminator sequences of pMrl930-BH. […]
# [6] = tested on: HEK293T cells; assay: Relative DNA content of sorted cells by FACS analysis; format: cell-based
# Experimental: (§5) HEK293T cells were harvested 60 hr after transfection with pcDNA-FLAG-TIF-IA, fixed with 2% paraformaldehyde and permeabilized with 0.1% Triton X-100 in PBS. Transfected cells were labeled by incubation for 1 hr with 2 μg/ml FITC-conjugated anti-M2 antibodies (Sigma) and subsequently stained with 20 ag/ml propidium iodide (Sigma). Cell were analyzed with a FACSCan™ flow cytometer in the presence of CaliBRITE™ beads (Becton Dickinson, San Jose, USA). The number of cells expressing FLAG-TIF-IA was calculated from the ratio between FITC-positive cells and counted beads.
# Given the functional significance of ERK/RSK-directed TIF-IA phosphorylation on Pol I transcription, mutations that enhance or abrogate TIF-IA activity may have a positive or negative effect on cell growth. To test this, HEK293T cells were transfected with cDNAs encoding wild-type or mutant TIF-IA which harbor single or double point mutations at S649 and S633. The expression of TIF-IA was estimated on Western blots and the cellular growth rate was measured by calcein-AM staining. […] Thus, cellular calcein fluorescence correlates with the amount of viable cells. […] Cells expressing FLAG-tagged wild-type or mutant TIF-IA were stained with FITC-conjugated anti-FLAG antibodies, identified by FACS and cell numbers were calculated by measuring the ratio of stained cells versus an internal standard. […]
# [7] = tested on: HEK293T cells; assay: Cell enumeration by dual-parameter flow cytometry; format: cell-based; details: 60 hr after transfection
# Experimental: (C) Cell enumeration by flow cytometry. HEK293T cells expressing wild-type TIF-IA or the S649 mutants were harvested 60 hours after transfection, stained with FITC-conjugated anti-FLAG M2 antibodies and analyzed by dual-parameter flow cytometry in a FACScan™ flow cytometer in the presence of CaliBRITE™ calibration beads. 60,000 events were recorded from each sample. The number of cells expressing FLAG-TIF-IA was calculated from the ratio between FITC-positive cells and counted beads.
# as §5, with “Transfected cells were labeled by incubation for 1 hr with 2 μg/ml FITC-conjugated anti-M2 antibodies (Sigma) and subsequently stained with 20 ag/ml propidium iodide (Sigma).” left out
# Given the functional significance of ERK/RSK-directed TIF-IA phosphorylation on Pol I transcription, mutations that enhance or abrogate TIF-IA activity may have a positive or negative effect on cell growth. […] The expression of TIF-IA was estimated on Western blots and the cellular growth rate was measured by calcein-AM staining. […] Thus, cellular calcein fluorescence correlates with the amount of viable cells. […]
# [8] = tested on: Pol I transcription; assay: In vitro transcription: TIF-IA mutants added to nuclear extract from exponentially growing FM3A cells; format: biochemical, murine; details: 20 and 40 ng added to 15 ug nuclear extract
# Experimental: 20 and 40 ng of the indicated TIF-IA mutants were added to 15 ug nuclear extract from exponentially growing FM3A cells and rDNA transcription was assayed.
# as §4
# Given that phosphorylation of TIF-IA at serine 649 is essential for transcription, excess of TIF-IAS649A should impair Pol I transcription. To test this, we examined the effect of exogenous wild-type and mutant TIF-IA on transcriptional activity of extracts from exponentially growing cells.
# [9] = tested on: HEK293T cells; assay: Quantitative fluorimetric viability assay with calcein-AM; format: cell-based; details: 24, 36, 48 and 60 hr after transfection; 2 μM calcein-AM
# Experimental: (B) Quantitative fluorimetric viability assay with calcein-AM. HEK293T cells were transfected with TIF-IA or the indicated point mutants. […] Viable cells were measured 24, 36, 48 and 60 hr after transfection by incubation with […] calcein-AM. The gradual increase in fluorescence intensity was recorded with a fluorescence multi-well plate reader for 20 min with an excitation wavelength of 485 nm and an emission wavelength of 530 nm. The proliferation rate of mock-transfected cells and cells overexpressing TIF-IA is shown at the left. Plots show the accumulation of calcein fluorescence (arbitrary units) against time. Growth rates calculated from linear regression curves are shown at the right. Values are presented as the mean±SD from three independent experiments performed in duplicates.
# Conversion of calcein-AM (calcein acetoxymethyl ester, (CN Bioscience GmbH, Bad Soden, Germany) to calcein was used to measure cell proliferation. 12 hr after transfection, HEK293T cells were seeded to 96-well micro-plates at 1×10^4 cells/well. After 24, 36, 48 and 60 hr, cells were washed with PBS, incubated with 2 μM calcein-AM, and the gradual increase in fluorescence intensity within the cells was recorded by a fluorescence multi-well plate reader (CytoFluor Series 4000/TC, PerSeptive Biosystems, (Applied Biosystems, Forster City, USA) for 20 min in 1 min intervals. Excitation wavelength used for measurements of fluorescence was 485 nm with a bandwidth of 20 nm; emission wavelength was 530 nm with a bandwidth of 25 nm. Under the experimental conditions used, there is a direct correlation between the accumulation ratio of intracellular calcein fluorescence and the number of viable cells. The data from three independent experiments were analyzed by Sigmaplot and expressed as the mean±standard deviation. For statistical analysis, student's t test was used. Differences with a P<0.01 were considered statistically significant.
# Given the functional significance of ERK/RSK-directed TIF-IA phosphorylation on Pol I transcription, mutations that enhance or abrogate TIF-IA activity may have a positive or negative effect on cell growth. To test this, HEK293T cells were transfected with cDNAs encoding wild-type or mutant TIF-IA which harbor single or double point mutations at S649 and S633. The expression of TIF-IA was estimated on Western blots and the cellular growth rate was measured by calcein-AM staining. Calcein-AM is a non-fluorescent, hydrophobic compound that is rapidly hydrolyzed by intracellular esterases releasing hydrophilic fluorescent calcein. Thus, cellular calcein fluorescence correlates with the amount of viable cells. […] Cells expressing FLAG-tagged wild-type or mutant TIF-IA were stained with FITC-conjugated anti-FLAG antibodies, identified by FACS and cell numbers were calculated by measuring the ratio of stained cells versus an internal standard. […] Conversely, the number of cells expressing TIF-IAS649A was 33% lower than the control. […] Taken together, the results reveal a striking correlation between phosphorylation of TIF-IA at serine 649, cellular rRNA synthetic activity and cell cycle progression.
substance,measurement,setting,value
"TIF-IAS633AS649D: printed once in b155, probably a misprint of TIF-IAS633AS649A",cell viability as cause of growth inhibition,[1],not due to decreased cell viability
"TIF-IAS44A: TIF-IA mutant, S44 mutated to alanine",interaction with TIF-IB/SL1 (co-precipitated TAFI110),[2],interacted with both Pol I and TIF-IB/SL1
same,capability to rescue transcription of extracts from density-arrested cells,"[3]; S199 and S44 mutants, 30 and 60 ng",abolishment of transcriptional activity of TIF-IA
same,interaction with Pol I (co-precipitated RPA116),[4],interacted with both Pol I and TIF-IB/SL1
same,transcription of the Pol I reporter,[5],inactive
"TIF-IAS649D: TIF-IA point mutant, serine 649 replaced by aspartic acid",increase of G2/M-phase cells,[6],50%
same,number of cells higher compared to cells overexpressing wild-type TIF-IA,[7],43%
same,effect on transcriptional activity of extracts from exponentially growing cells,[8],enhanced Pol I transcription
same,capability to rescue transcription of extracts from density-arrested cells,"[3]; S633/S649 mutants, 20 and 40 ng",activated Pol I transcription to a similar or even higher level compared to wild-type TIF-IA
same,cellular growth rate by calcein-AM staining,[9],accelerated cell growth
